We go through 13 compounds from patent publication US20050209278A1, “Piperidinyl- and piperazinyl-sulfonylmethyl hydroxamic acids and their use as protease inhibitors” (priority 2002, published 2005).

Usually Ki stands for a measure of affinity in units of concentration, obtained from inhibition or displacement.

Where only a bound is given, the exact number is not on record here.

Holding throughout (assay type): biochemical
The target in one assay is T1, MMP-1 (Homo sapiens, UniProt P03956).
T1 construct: made in house; host or cells: MMP-1-transfected HT-1080 cells (spent media)
T1 sequence (P03956 100-469): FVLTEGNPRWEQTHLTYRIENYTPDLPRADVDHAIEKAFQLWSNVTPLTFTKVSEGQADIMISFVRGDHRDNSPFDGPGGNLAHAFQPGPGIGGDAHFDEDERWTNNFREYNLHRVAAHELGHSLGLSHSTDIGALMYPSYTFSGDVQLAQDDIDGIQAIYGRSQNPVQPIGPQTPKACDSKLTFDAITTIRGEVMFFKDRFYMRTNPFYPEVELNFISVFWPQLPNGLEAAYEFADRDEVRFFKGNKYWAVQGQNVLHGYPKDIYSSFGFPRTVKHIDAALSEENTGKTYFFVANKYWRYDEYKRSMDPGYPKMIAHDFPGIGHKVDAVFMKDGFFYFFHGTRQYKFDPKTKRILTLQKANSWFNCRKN
Briefly: MMP-1 inhibition (in vitro Ki). The note with it: Table 9; read-out: MMP-1 Ki (IC-50).

The next assay deals with T2, MMP-9 (Homo sapiens, UniProt P14780).
T2 construct: made in house; host or cells: MMP-9-transfected HT1080 cells (spent media)
As to the kind of experiment: MMP-9 inhibition (in vitro Ki). To be noted: Table 9; read-out: MMP-9 Ki (IC-50).

Another assay has as its target T3, MMP-13 (Homo sapiens, UniProt P45452).
T3 construct: made in house; host or cells: baculovirus / insect cells
Briefly: MMP-13 inhibition (in vitro Ki). The note with it: Table 9; read-out: MMP-13 Ki (IC-50).

The next assay deals with T4, MMP-2 (Homo sapiens, UniProt P08253).
T4 construct: made in house; host or cells: MMP-2-transfected p2AHT2 cells
T4 sequence (P08253 110-660): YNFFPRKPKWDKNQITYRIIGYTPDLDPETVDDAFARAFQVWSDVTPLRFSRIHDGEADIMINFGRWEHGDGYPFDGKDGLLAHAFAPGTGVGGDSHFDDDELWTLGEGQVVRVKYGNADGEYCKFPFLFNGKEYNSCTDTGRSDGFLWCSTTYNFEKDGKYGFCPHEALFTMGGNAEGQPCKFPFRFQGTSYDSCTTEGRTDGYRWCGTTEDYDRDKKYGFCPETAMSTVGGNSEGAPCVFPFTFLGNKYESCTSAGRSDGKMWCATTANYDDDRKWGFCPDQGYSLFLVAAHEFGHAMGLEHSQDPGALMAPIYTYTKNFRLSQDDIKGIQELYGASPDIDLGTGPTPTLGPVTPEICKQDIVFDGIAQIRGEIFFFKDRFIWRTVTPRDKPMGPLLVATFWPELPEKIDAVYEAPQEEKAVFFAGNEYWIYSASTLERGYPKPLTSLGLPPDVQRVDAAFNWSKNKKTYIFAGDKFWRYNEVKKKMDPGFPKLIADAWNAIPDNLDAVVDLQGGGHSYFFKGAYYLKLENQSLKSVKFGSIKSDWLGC
Briefly: MMP-2 inhibition (in vitro Ki). To be noted: Table 9; read-out: MMP-2 Ki (IC-50).

The next assay has as its target T5, MMP-14 (Homo sapiens, UniProt P50281).
T5 construct: The catalytic domain enzyme was expressed in E. coli inclusion bodies, solubilized in urea; made in house
Briefly: MMP-14 inhibition (in vitro Ki). The note with it: Table 9; read-out: MMP-14 Ki (IC-50).

T2 sequence (P14780 107-707 limits assumed): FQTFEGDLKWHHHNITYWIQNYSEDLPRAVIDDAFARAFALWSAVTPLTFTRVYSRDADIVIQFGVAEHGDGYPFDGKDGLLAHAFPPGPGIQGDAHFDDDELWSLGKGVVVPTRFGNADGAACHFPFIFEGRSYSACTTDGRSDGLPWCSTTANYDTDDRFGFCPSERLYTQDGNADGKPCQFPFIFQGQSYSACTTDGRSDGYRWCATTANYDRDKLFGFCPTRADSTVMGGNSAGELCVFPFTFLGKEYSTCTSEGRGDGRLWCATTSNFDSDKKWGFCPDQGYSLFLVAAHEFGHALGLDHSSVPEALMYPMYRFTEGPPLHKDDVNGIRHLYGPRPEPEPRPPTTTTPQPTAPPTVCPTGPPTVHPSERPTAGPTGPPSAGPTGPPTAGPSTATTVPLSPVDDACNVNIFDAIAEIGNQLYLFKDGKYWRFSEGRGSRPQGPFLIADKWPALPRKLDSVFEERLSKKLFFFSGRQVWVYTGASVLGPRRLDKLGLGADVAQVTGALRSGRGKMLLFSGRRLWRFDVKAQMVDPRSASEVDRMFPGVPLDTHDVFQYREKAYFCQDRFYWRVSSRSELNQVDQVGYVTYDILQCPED

Turning to `CC(C)CN(C)C(=O)/C=C/C=C/C1CCN(S(=O)(=O)C2(C(=O)NO)CCOCC2)CC1` [Example A77], the inhibitory constant (Ki) on MMP-1 is 6200 nM; at MMP-9, 5910 nM; on MMP-13, 6.79 nM; at MMP-2, 1100 nM; at MMP-14, more than 10000 nM.
Taken in the same sequence, the figures for `O=C(/C=C/C=C/C1CCN(S(=O)(=O)C2(C(=O)NO)CCOCC2)CC1)N1CCCCC1` [Example A78] were 2420 nM, 428 nM, 0.52 nM, 172 nM and more than 10000 nM.
On to `CN(C(=O)/C=C/C=C/C1CCN(S(=O)(=O)C2(C(=O)NO)CCOCC2)CC1)C1CCCCC1` [Example A79], for which the Ki was more than 10000 nM on MMP-1; more than 10000 nM at MMP-9; 5.94 nM at MMP-13; 2450 nM at MMP-2; more than 10000 nM at MMP-14.
For `O=C(/C=C/C=C/C1CCN(S(=O)(=O)C2(C(=O)NO)CCOCC2)CC1)N1CCc2ccccc21` [Example A80], the inhibition constant (Ki) at MMP-1 was 5450 nM; at MMP-9, 1890 nM; at MMP-13, 0.389 nM; on MMP-2, 239 nM; at MMP-14, more than 10000 nM.
Taken in the same sequence, the figures for `O=C(/C=C/C=C/C1CCN(S(=O)(=O)C2(C(=O)NO)CCOCC2)CC1)N1C[C@H]2CCCC[C@H]2C1` [Example A81] were 4440 nM, 274 nM, 0.92 nM, 213 nM and more than 10000 nM.
Taken in the same sequence, the figures for `O=C(/C=C/C=C/C1CCN(S(=O)(=O)C2(C(=O)NO)CCOCC2)CC1)N1Cc2ccccc2C1` [Example A82] were more than 10000 nM, 8280 nM, 0.901 nM, 1080 nM and more than 10000 nM.
Taken in the same sequence, the figures for `C#CCN(C)C(=O)CCCCC1CCN(S(=O)(=O)C2(C(=O)NO)CCOCC2)CC1` [Example A83] were 277 nM, 382 nM, 1.58 nM, 60 nM and more than 10000 nM.
Consider `O=C(NO)C(CC1CC1)(CC1CC1)S(=O)(=O)N1CCC(c2ccc(CCC(F)(F)F)cn2)CC1` [Example A84], for which the inhibition constant Ki at MMP-1 came to 9770 nM; on MMP-9 it was 0.738 nM; on MMP-13 it was 1.82 nM; at MMP-2, 2.88 nM; at MMP-14, 5390 nM.
Taken in the same sequence, the figures for `O=C(CCCCC1CCN(S(=O)(=O)C2(C(=O)NO)CCOCC2)CC1)N1CCOCC1` [Example A85] were 3420 nM, 553 nM, 3 nM, 82.3 nM and more than 10000 nM.
Take `CNC(=O)CCCCC1CCN(S(=O)(=O)C2(C(=O)NO)CCOCC2)CC1` [Example A86]: the inhibition constant (Ki) on MMP-1 was determined as 516 nM; at MMP-9 it was 307 nM; on MMP-13 it was 8.19 nM; on MMP-2 it was 23.8 nM; on MMP-14, 7540 nM.
Taken in the same sequence, the figures for `O=C(CCCCC1CCN(S(=O)(=O)C2(C(=O)NO)CCOCC2)CC1)N1Cc2ccccc2C1` [Example A87] were 927 nM, 107 nM, 0.01 nM, 17.2 nM and more than 10000 nM.
Taken in the same sequence, the figures for `O=C(CCCCC1CCN(S(=O)(=O)C2(C(=O)NO)CCOCC2)CC1)N1CC2CCCCC2C1` (centres unmarked) [Example A88] were 2780 nM, 50.7 nM, 2.01 nM, 38 nM and 5360 nM.
On to `O=C(CCCCC1CCN(S(=O)(=O)C2(C(=O)NO)CCOCC2)CC1)Nc1ccc(OC(F)(F)F)cc1` [Example A89], for which the inhibition constant (Ki) was determined as 1030 nM on MMP-1; 471 nM on MMP-9; 0.66 nM at MMP-13; 29.3 nM on MMP-2; 8570 nM on MMP-14.
